Assay results taken from patent US9273088B2, “Ginsenoside derivative compounds and the use thereof in protection against ischemia/reperfusion injury” (Macau University of Science and Technology, priority 2013, dated 2016).

Assays:
[1] = test system: H9c2 cells; assay: Hypoxia/reoxygenation (H/R) injury model, MTT cell viability assay; assay type: cell-based, rat; settings: for viability of cardiomyocyte cells after H/R (ratio of viable cells relative to normoxia control) / protective effect compared with the positive control drug / order of cardioprotective effects: hypoxia/reoxygenation; for viability of cardiomyocyte cells after H/R (ratio of viable cells relative to normoxia control): mean±SEM; for protective effect compared with the positive control drug: vs diazoxide 50 μM; for order of cardioprotective effects: rank order of the 7 derivative compounds
Experimental: (§1) Embryonic rat heart derived cell line H9c2 (2-1), shorted in H9c2 cells, was purchased from ATCC (CRL-1446), which is a permanent cell line and derived from embryonic BDIX rat ventricular heart tissue. Dulbecco's Modified Eagle Medium, Fetal Bovine Serum, and Penicillin-Streptomycin-Glutamine, 2.5% Trypsin/EDTA solution, Phosphate-buffered saline from GIBCO® (Invitrogen™) were used.
(§2) H9c2 cells were cultured in DMEM medium supplemented with 10% fetal bovine serum, 1% glutamine, 50 U/ml penicillin and […] streptomycin. The culture atmosphere for H9c2 cells was 95% air with 5% carbon dioxide (CO2) at 37.0° C. The medium was replaced every 2-3 days. A stock of cells was grown in a 100 cm^2 culture dish and split before confluence at a subcultivation ratio of 1:4. Cells used for experiments were seeded at a density of 1.0×10^4 cells/well in a 96-well culture plate, and cells in each well were allowed to grow to 60-80% confluence within 24 h prior to drug treatment.
After treatment with desired concentrations of drug for 3 h, the cells were washed twice with Krebs-Ringer Bicarbonate buffer (KRB; 115 mM NaCl, 4.7 mM KCl, 2.5 mM CaCl2, 1.2 mM KH2PO4, 1.2 mM MgSO4, 24 mM NaHCO3, 10 mM HEPES; pH 7.4). Aliquots of KRB supplemented with 0.01% (w/v) BSA were added to the cells immediately prior to hypoxia. A Billups-Rothenberg modular incubator chamber (Billups-Rothenberg, Inc.; DelMar, Calif.) was used to produce an in vitro Hypoxia/Reoxygenation challenge. In essence, cells were placed in the sealed chamber and the chamber was flushed with 100% nitrogen for 5 min at a flow rate of 25 liter/min. After closing all sealable connectors, the chamber was transferred to an incubator and the cells in the chamber were subjected to a period of hypoxia at 37° C. Reoxygenation was initiated by opening the chamber and then replacing the KRB with fresh DMEM medium. The cells were then cultured in the incubator under an atmosphere of 5% (v/v) CO2 in air at 37° C. for designed periods.
(§3) The cell viability was measured using the MTT colorimetric assay, which was based on the conversion of MTT to formazan crystals by mitochondrial dehydrogenase. Briefly, H9c2 cells were seeded in 96-well plates at 1×10^4 cells/well and incubated at 37° C. for 48 h. The cells were then treated with DMSO (H/R control), diazoxide (50 μM). Compounds A-G (at two concentrations of 12.5 μM or 25 μM) and incubated under hypoxia condition. The cells without any treatment and incubated under normoxia condition were used as normal control. At the end of the treatments, […] MTT (5 mg/ml) was added for 4 h and then […] MTT buffer (10% SDS solution, pH7.4) was added to each well. After overnight incubation and 30 s vibration, the absorbance was read at 490 nm wavelength. Results were expressed as the ratio of the number of viable cells with treatments relative to that of the normoxia control.
Data were expressed as mean±SEM. One-way ANOVA with multiple comparisons using the Dunnett's Multiple Comparison Test was used to analyze differences between groups. All statistical analysis was performed using Prism 5 for Windows version 5.00 (GraphPad software, Inc., La Jolla, Calif. 92037 USA). Differences were considered significant if p<0.05.

[2] = test system: H9c2 cells; assay: Cytotoxicity study in normoxia condition, MTT cell viability assay; assay type: cell-based, rat
Experimental: as §1, §2, §3
The cell line and reagents used, and cell culture methods, cell viability assay and statistical analysis employed were described in Example 2.
The cells were treated with desired concentrations of compounds A-G for 3 h, then the medium thereof was replaced with DMEM medium with 10% fetal bovine serum, 1% glutamine, 50 U/ml penicillin and […] streptomycin. The culture atmosphere for normaxia condition was 95% air with 5% carbon dioxide (CO2) at 37.0° C. The cells were then cultured in the incubator for designed periods. The cells without any treatment and incubated under normoxia condition were used as positive control.
Results were expressed as the ratio of the number of viable cells with treatments relative to that of the positive control.

Compound | protective effect compared with the positive control drug ([1]; 12.5 or 25 μM) | order of cardioprotective effects [1] | cytotoxicity under normoxia condition ([2]; equivalent dosages) | further results
CC(C)=CCC[C@](C)(O)[C@H]1CC[C@]2(C)[C@@H]1[C@H](O)C[C@@H]1[C@@]3(C)CC[C@H](O[C@@H]4O[C@H](CO)[C@@H](O)[C@H](O)[C@H]4O[C@@H]4O[C@H](CO)[C@@H](O)[C@H](O)[C@H]4O)C(C)(C)[C@@H]3CC[C@]12C [Rg3, reference compound] |  |  |  | protective effect against I/R injury induced by hypoxia/reoxygenation, compared with H/R control group ([1]; 12.5 or 25 μM): have protective effect
3-O-[β-D-glucopyranosyl(1→2)-β-D-glucopyranosyl]-3β,12β,20(R), 25-tetrahydroxydammar-23-ene [Compound D] | higher than the positive control drug | G>F>C>A>D>B, E | no significant cytotoxicity | viability of cardiomyocyte cells after H/R (ratio of viable cells relative to normoxia control) ([1]; 25 μM, 3 h pretreatment): 61.06±0.30%
3-O-[β-D-glucopyranosyl(1→2)-β-D-glucopyranosyl]-3β,12β,20(S), 24(S)-tetrahydroxydammar-25-ene and its 24(R) epimer [Compound A] | higher than the positive control drug | G>F>C>A>D>B, E | no significant cytotoxicity | cytotoxicity under normoxia condition ([2]; 12.5 μM, vs untreated control): no statistically significant cytotoxicity; cytotoxicity under normoxia condition ([2]; 25 μM, vs untreated control): no statistically significant cytotoxicity
3-O-[β-D-glucopyranosyl(1→2)-β-D-glucopyranosyl]-3β,12β,20(R), 24(S)-tetrahydroxydammar-25-ene and its 24(R) epimer [Compound C] | higher than the positive control drug | G>F>C>A>D>B, E | no significant cytotoxicity | 
3-O-[β-D-glucopyranosyl(1→2)-β-D-glucopyranosyl]-3β,12β,20(S),25-tetra-hydroxydammar-23-ene [Compound B] |  | G>F>C>A>D>B, E |  | 
3-O-[β-D-glucopyranosyl(1→2)-β-D-glucopyranosyl]-20(R), 24(S)-epoxydammarane-3β,12β-triol and its 24(R) epimer [Compound E] |  | G>F>C>A>D>B, E | no significant cytotoxicity | 
CC1=NS(=O)(=O)c2cc(Cl)ccc2N1 [Positive 50, diazoxide, reference compound] |  |  |  | viability of cardiomyocyte cells after H/R (ratio of viable cells relative to normoxia control) ([1]; 50 μM positive control, p<0.001): 61.69±0.37%
